From patent US6432961B1, “Method for preventing the onset of asthma” (UCB S.A., priority 1998, dated 2002)

Assays:
[1] = tested on: infants with atopic dermatitis; test: Adverse events recorded during the 18 month study; assay type: in vivo
Experimental: At each of the nine visits, the atopy status, any concurrent illnesses, concomitant medications and procedures were recorded. Patients underwent a physical examination, including the measurement of vital signs.
Adverse events were recorded by the parents on diary cards and discussed with the investigator at each visit. Serious adverse events had to be reported immediately.
(§1) Oral solutions of cetirizine dihydrochloride (10 mg/ml) and matching placebo, similar in appearance and taste were used. The recommended study dosage was 0.25 mg cetirizine/kg b.i.d. (b.i.d.=“bis in die”, 2 times a day).

[2] = tested on: onset of asthma in young children with atopic dermatitis; test: 18 month double blind, placebo-controlled study of cetirizine dihydrochloride for preventing the onset of asthma; assay type: in vivo, infants; settings: for RR for developing asthma when cetirizine treated: versus placebo
Source text: The aim of the study relative to the clinical effect of cetirizine dihydrochloride was to establish on the intention to treat (ITT population) whether an 18 month cetirizine dihydrochloride treatment can prevent the onset of asthma in young children with atopic dermatitis, when compared to placebo. Subgroups based on the baseline status of biological markers as well as specific asthmatic patients (i.e. wheezers only; asthma onset date at least 3 months after inclusion) were foreseen as well. It was considered that a 30% reduction of the incidence of asthma is clinically relevant. Secondary parameters of efficacy included the severity of asthma and atopic dermatitis.
All the infants had to have at least one parent or sibling with a history of atopic disease (atopic dermatitis, allergic rhinitis or asthma). Excluded were infants with asthma, or with a history of any episodes of wheezing or nocturnal cough as well as any condition likely to obscure the diagnosis of asthma (Guidelines for the diagnosis and management of asthma. National Asthma Education and Prevention Program. Expert Panel Report II. National Institute of Health publication 97-4051; International Report. International consensus report on diagnosis and treatment of asthma. National Heart, Lung and Blood Institute. National Institute of Health publication 92-3091).
The study was a prospective, randomized, double blind, parallel group, and placebo-controlled study with cetirizine dihydrochloride.
Study treatment lasted for 18 months. After the treatment period, patients entered a long-term follow-up period.
The primary end-point for efficacy was the onset of asthma, defined as 3 episodes of nocturnal cough with sleep disturbances or wheezing, separated by at least 7 days, in a clinical setting where asthma is likely and conditions other than allergy have been excluded.
Serum total and specific (grass pollen, cow's milk, egg, house dust mites and cat dander) IgE antibody levels were determined using the Pharmacia CAP® system (Pharmacia & Upjohn, Uppsala, Sweden). These analyses were made at baseline, and after 3, 12 and 18 months of treatment by a central laboratory (Institut Pasteur—Lille, France) according to instructions of the manufacturer and routine clinical laboratory performances.
as §1
Sample size was based on an expected cumulative incidence of asthma in 40% of children in the placebo group after 18 months of treatment. A decrease of 30% of the incidence was considered as clinically relevant.

[3] = subgroup with elevated Eosinophil count at baseline

Which results are given for `O=C(O)COCCN1CCN(C(c2ccccc2)c2ccc(Cl)cc2)CC1` (centres unmarked) [Cetirizine]?
safety in infants ([1]; 18 month treatment, large trial in infants): safe product; urticaria (adverse event frequency) ([1]; cetirizine group versus 16.1% placebo, p<0.001): 5.8%; adverse event (AE) profiles between groups ([1]; cetirizine versus placebo, except for urticaria): no significant differences; Occurrence of Asthma by Treatment ([2]; ITT population, 18 months, 0.25 mg/kg b.i.d. oral): (37.7) %; number of children developing asthma ([2]; early treatment initiated between 1 and 2 years of age, atopic dermatitis, sensitized (specific IgE ≧0.35 kUA/l) to grass pollen or house dust mite): halved; prevention of asthma ([2]; infants with atopic dermatitis and evidence of sensitivity to grass pollen or house dust mite): successfully prevents asthma; risk of developing asthma compared with placebo ([2]; infants with raised baseline total IgE (≧30 kU/l) or specific IgE antibodies (≧0.35 kUA/l)): reduced risk of developing asthma; Occurrence of Asthma by Treatment [2, 3]: (42.7) %; Occurrence of Asthma by Treatment ([2]; subgroup with elevated IgE Cat dander (E1) at baseline (≧0.35 kUA/l)): (40.6) %; Occurrence of Asthma by Treatment ([2]; subgroup with elevated IgE Egg (F1) at baseline (≧0.35 kUA/l)): (31.2) %; Occurrence of Asthma by Treatment ([2]; subgroup with elevated IgE Grass pollen (GX1) at baseline (≧0.35 kUA/l)): (27.8) %; Occurrence of Asthma by Treatment ([2]; subgroup with elevated IgE HDM (D1) at baseline (≧0.35 kUA/l)): (28.6) %; Occurrence of Asthma by Treatment ([2]; subgroup with elevated IgE HDM + Grass pollen at baseline (≧0.35 kUA/l)): (34.2) %; Occurrence of Asthma by Treatment ([2]; subgroup with elevated IgE Milk (F2) at baseline (≧0.35 kUA/l)): (30.7) %; Occurrence of Asthma by Treatment ([2]; subgroup with elevated Total IgE (PRIST) at baseline (≧30 kU/l)): (38.1) %; RR for developing asthma when cetirizine treated [2, 3]: 0.9; RR for developing asthma when cetirizine treated ([2]; subgroup with elevated IgE Cat dander (E1) at baseline): 0.9; RR for developing asthma when cetirizine treated ([2]; subgroup with elevated IgE Egg (F1) at baseline): 0.8; RR for developing asthma when cetirizine treated ([2]; subgroup with elevated IgE Grass pollen (GX1) at baseline): 0.5; RR for developing asthma when cetirizine treated ([2]; subgroup with elevated IgE HDM (D1) at baseline): 0.6; RR for developing asthma when cetirizine treated ([2]; subgroup with elevated IgE HDM + Grass pollen at baseline): 0.6; RR for developing asthma when cetirizine treated ([2]; subgroup with elevated IgE Milk (F2) at baseline): 0.7; RR for developing asthma when cetirizine treated ([2]; subgroup with elevated Total IgE (PRIST) at baseline): 0.9
